Measured values reported in publication PMC9775191, “A Subset Screen of the Compounds Australia Scaffold Library Identifies 7-Acylaminodibenzoxazepinones as Potent and Selective Hits for Anti-Giardia Drug Discovery” (Biomedicines, 2022).

These compounds were tested on G. duodenalis BRIS/91/HEPU/1279 (assay: Primary Giardia screen at 10 µM (live-cell imaging, automated counting)). Conditions: 24 h.
Format: cell-based, Giardia duodenalis
Method in brief: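 One concentration, 10 μM, is screened per compound in singlicate under microaerophilic gas (3% O2, 5% CO2, N2). Inhibition comes from automated image-based counts at 24 and 48 h, relative to 0.2% DMSO controls.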

SMILES | Average % Inhibition 24h [%]
COc1ccc(Nc2cc(C)nc(N3CCN(C(=O)c4ccccc4)CC3)n2)cc1 [SN00793485] | 5.5

Same assay, conditions: 24 h, first singlicate assay

SMILES | % Inhibition n=1 24h [%]
COc1ccc(Nc2cc(C)nc(N3CCN(C(=O)c4ccccc4)CC3)n2)cc1 [SN00793485] | 11.1

Same assay, conditions: 24 h, re-assessment

SMILES | % Inhibition n=2 24h [%]
COc1ccc(Nc2cc(C)nc(N3CCN(C(=O)c4ccccc4)CC3)n2)cc1 [SN00793485] | 0.0

Same assay, conditions: 48 h

SMILES | Average % Inhibition 48h [%]
COc1ccc(Nc2cc(C)nc(N3CCN(C(=O)c4ccccc4)CC3)n2)cc1 [SN00793485] | 29.3

Same assay, conditions: 48 h, first singlicate assay

SMILES | % Inhibition n=1 48h [%]
Cc1ccc(-c2cc(C(=O)N3CC(C)CC(C)C3)c3ccccc3n2)o1 (stereo not drawn) [SN00783691] | 7.2
Cc1coc(C)c1C(=O)CC1(O)C(=O)Nc2ccccc21 (stereo not drawn) [SN00783840] | 0.0
O=C(Cn1cnc2c(nnn2Cc2ccc(Cl)cc2)c1=O)NC1CCCC1 [SN00802568] | 16.4
COc1cccc(-c2noc(-c3cc(N4CCN(C(C)=O)CC4)nc4ccccc34)n2)c1OC [SN00796396] | 7.7
O=C(C1CCN(S(=O)(=O)c2ccccc2)CC1)N1CC=C(c2ccccc2)CC1 [SN00769994] | 0.0
CCOCCCNC(=O)N1Cc2ccccc2-n2cccc2C1c1ccccc1 (stereo not drawn) [SN00791279] | 0.0
Cc1ccc(OCC(=O)NCC2(N3CCN(C)CC3)CCCCC2)cc1 [SN00786260] | 9.4
CCn1c(CN2Cc3ccccc3C[C@H]2C(N)=O)nc2cc(S(=O)(=O)N3CCCCC3)ccc21 [SN00773766] | 10.0
O=C(C1=C(O)C(=O)N(CCN2CCOCC2)C1c1ccncc1)c1ccccc1 (stereo not drawn) [SN00776455] | 0.7
Cc1cccc(NC(=O)Cn2c(=O)n(-c3ccc(F)cc3)c(=O)c3c(C)c(C(=O)N(C)C)sc32)c1 [SN00794395] | 21.9
COCCN1C(=O)c2oc3ccccc3c2OCC1(C)C(=O)NCc1ccccc1OC (stereo not drawn) [SN00791365] | 21.5
Cn1ncc2c(=O)[nH]c(CN3CCCC3Cc3ccccc3)nc21 (stereo not drawn) [SN00772513] | 21.0
COc1ccc(NC(=O)N2CCN(CC3CCCCN3C)CC2)cn1 (stereo not drawn) [SN00773239] | 0.0
Cc1nnc2n1CCN(C(=O)c1cnc(-c3ccccc3)s1)C2 [SN00807889] | 22.7
COc1ccc(CCn2c(=O)c3ncccc3n(Cc3ccc(C)cc3)c2=O)cc1OC [SN00789585] | 1.7
Cc1ccc2nc(C3=C(N)N(C4CCCCCC4)CC3=O)[nH]c2c1 [SN00785773] | 29.0
Cc1cccc(C)c1NC(=O)Cn1c(=O)n(CCc2c[nH]c3ccccc23)c(=O)c2cccnc21 [SN00785456] | 0.5
COc1cccc(N2CCN(C(=O)C3CCN(c4nc(NC(C)=O)ns4)CC3)CC2)c1 [SN00800160] | 16.2
CSc1ccc(N2CC(C(=O)N3c4ccccc4CC3C)CC2=O)cc1 (stereo not drawn) [SN00775126] | 0.0

SMILES | % Inhibition n=1 48h [%]
COc1ccc(Nc2cc(C)nc(N3CCN(C(=O)c4ccccc4)CC3)n2)cc1 [SN00793485] | 58.6
COc1ccc(C(NC(=O)CN2CCN(Cc3n[nH]c(C)n3)CC2)C(C)C)cc1 (stereo not drawn) [SN00782152] | 0.6
COc1ccc(CNc2nc(-c3cccc(OC)c3)no2)cc1 [SN00791772] | 0.0
Cc1csc(/C(=C\c2cc(C)n(-c3ccnn3C(C)C)c2C)CN)n1 [SN00770781] | 5.0
O=C(c1cc(CN2CCCC2)on1)N1CCN(C(=O)c2ccco2)CC1 [SN00791727] | 0.0
CCc1ccc(CNC(=O)c2cc3ccncc3n2C)cc1 [SN00798182] | 20.1
O=C(c1noc2ncnc(N3CCCC3)c12)N1CCN(c2ccccn2)CC1 [SN00791654] | 7.3
Cc1ccc(-c2nc(C(=O)N3CCN(c4ccc(Cl)cc4)CC3)cs2)s1 [SN00796526] | 7.8
CCc1cccc(NC(=O)C2CCCN(S(=O)(=O)c3c(C)noc3C)C2)c1 (stereo not drawn) [SN00784983] | 0.0
O=C(Cc1csc(Cc2ccccn2)n1)Nc1ccc2nc(N3CCOCC3)sc2c1 [SN00779496] | 2.9
O=c1c2c(ncn2Cc2ccc(F)cc2)n(-c2ccccc2)c(=O)n1C1CCCC1 [SN00802718] | 6.1
CCOC(=O)CC(NC(=O)Nc1cc(F)c2[nH]c(=O)ccc2c1)c1ccccc1 (stereo not drawn) [SN00795424] | 4.9
CS(=O)(=O)c1ccc(-c2csc(-n3nccc3C(F)(F)F)n2)cc1 [SN00776135] | 7.7
CCCC(=O)Nc1ccc2c(c1)CN(C(=O)Cc1ccccc1C)C(C(=O)N(C)C)C2 (stereo not drawn) [SN00798922] | 11.7
CN(C)C(=O)N1CCN(Cc2nc3c(cnn3C)c(=O)[nH]2)CC1 [SN00807792] | 0.0
COc1ccc(C2(C(=O)N3CCC(Cc4nc(-c5ccc(F)cc5)no4)CC3)CC2)cc1 [SN00801690] | 0.0
Cc1nc(-c2cccc(N3CC(C(=O)NCc4ccccc4)CC3=O)c2)no1 (stereo not drawn) [SN00789781] | 0.0
Cc1nnc(-c2nnc(NCc3ccccc3)c3ccccc23)o1 [SN00800540] | 1.6
O=S(=O)(c1ccc(-c2cnc(C3CCC3)o2)s1)N1CCC2(CC1)OCCO2 [SN00795093] | 7.0

Same assay, conditions: 48 h, re-assessment

SMILES | % Inhibition n=2 48h [%]
COc1ccc(Nc2cc(C)nc(N3CCN(C(=O)c4ccccc4)CC3)n2)cc1 [SN00793485] | 0.0

Same assay, conditions: Giardia duodenalis, 48 h, first singlicate assay, read-out: % Inhibition n=1 48h

SMILES | inhibition at 10 µM [%]
Cc1cc(-c2cc(C(=O)Nc3c(C)n(C)n(-c4ccccc4)c3=O)c3cnn(C(C)C)c3n2)c(C)o1 [SN00776477] | 0
CCOc1ccc(C(=O)Nc2ccc3c(c2)N(C(C)C)C(=O)c2ccccc2O3)cc1 [SN00797660] | 33.8

These compounds were tested on G. duodenalis BRIS/91/HEPU/1279 (assay: Giardia dose response assay, assemblage B). Conditions: BRIS/91/HEPU/1279; 48 h; mean ± SD; read-out: IC50 Giardia (48 h).
Format: cell-based, Giardia duodenalis
Experimental: In these assays, compounds were serially diluted (8–12-point doubling dilutions in technical duplicate) in DMSO control media, with all test wells inoculated with parasites (1.5 × 10^4 parasites for BRIS/91/HEPU/1279 and BRIS/91/HEPU/1279m1, or 3 × 10^3 parasites for BRIS/87/HEPU/713). […] All plates were sealed in culture chambers and gassed with 3% O2, 5% CO2 in N2 and incubated at 37 °C for 48 h, with parasites imaged and enumerated at 24 and 48 h. Growth inhibition was calculated as a percentage relative to vehicle controls minus any background as described above and IC50 values were determined using log-linear interpolation as previously described. […] Statistical comparison of IC50 values when required were performed using Student’s t-test.

SMILES | IC50 [µM]
COc1ccc(C(=O)Nc2ccc3c(c2)Oc2ccccc2C(=O)N3C)cc1OC [SN00797646] | > 8.6

Same assay, conditions: Giardia duodenalis, 48 h, BRIS/91/HEPU/1279; 48 h; mean ± SD; read-out: IC50 Giardia (48 h)

SMILES | IC50 [µM]
CCn1ccc(C(=O)Nc2ccc3c(c2)Oc2ccccc2C(=O)N3C(C)C)n1 [SN00797664] | > 10
Cc1cccc(C(=O)Nc2ccc3c(c2)Oc2ccccc2C(=O)N3C)c1 [SN00797639] | > 10
Cc1ccc(N2CC(C(=O)Nc3ccc4c(c3)Oc3ccccc3C(=O)N4C(C)C)CC2=O)cc1 (stereo not drawn) [SN00797654] | > 10
COc1ccc(C(=O)Nc2ccc3c(c2)Oc2ccccc2C(=O)N3C(C)C)c(OC)c1 [SN00797650] | > 10
Cc1ccc(N2CC(C(=O)Nc3ccc4c(c3)Oc3ccccc3C(=O)N4C)CC2=O)cc1C (stereo not drawn) [SN00797636] | > 10
Cc1ccc(C(=O)NCC(=O)Nc2ccc3c(c2)Oc2ccccc2C(=O)N3C(C)C)cc1 [SN00797656] | > 10
CN1C(=O)c2ccccc2Oc2cc(NC(=O)c3ccccc3)ccc21 [SN00797647] | > 10
Cc1cc(-c2cc(C(=O)Nc3c(C)n(C)n(-c4ccccc4)c3=O)c3cnn(C(C)C)c3n2)c(C)o1 [SN00776477] | > 10
CN1C(=O)c2ccccc2Oc2cc(NC(=O)COc3ccc(Cl)cc3)ccc21 [SN00797641] | > 10
CC(C)N1C(=O)c2ccccc2Oc2cc(NC(=O)c3ccccc3)ccc21 [SN00797661] | > 10
COc1cc(OC)cc(C(=O)Nc2ccc3c(c2)Oc2ccccc2C(=O)N3C)c1 [SN00797637] | 5
COc1ccc(OCC(=O)Nc2ccc3c(c2)Oc2ccccc2C(=O)N3C(C)C)cc1 [SN00797662] | > 10
CC(C)N1C(=O)c2ccccc2Oc2cc(NC(=O)C3CC(=O)N(c4ccccc4)C3)ccc21 (stereo not drawn) [SN00797655] | > 10
COc1ccc(C(=O)Nc2ccc3c(c2)Oc2ccccc2C(=O)N3C)c(OC)c1 [SN00797635] | > 10
Cc1ccc(NC(=O)c2oc3ccccc3c2NC(=O)c2ccccc2)cc1 [SN00785329] | > 10
CN1C(=O)c2ccccc2Oc2cc(NC(=O)c3cc4cc(Cl)ccc4[nH]3)ccc21 [SN00797649] | > 10
Cc1ccc(N2CC(C(=O)Nc3ccc4c(c3)Oc3ccccc3C(=O)N4C(C)C)CC2=O)cc1C (stereo not drawn) [SN00797653] | > 10
CCOc1ccc(C(=O)Nc2ccc3c(c2)N(C(C)C)C(=O)c2ccccc2O3)cc1 [SN00797660] | > 10
COc1ccc(C(=O)Nc2ccc3c(c2)Oc2ccccc2C(=O)N3C)cc1OC [SN00797646] | 8.6
CN1C(=O)c2ccccc2Oc2cc(NC(=O)c3ccoc3)ccc21 [SN00797644] | > 10
CN1C(=O)c2ccccc2Oc2cc(NC(=O)c3cccc(Br)c3)ccc21 [SN00797645] | > 10
Cc1ccc(C(=O)Nc2ccc3c(c2)Oc2ccccc2C(=O)N3C(C)C)cc1F [SN00797663] | > 10
CC(C)N1C(=O)c2ccccc2Oc2cc(NC(=O)C3CCCCC3)ccc21 [SN00797659] | > 10
Cc1ccc(C(=O)Nc2ccc3c(c2)Oc2ccccc2C(=O)N3C(C)C)cc1 [SN00797658] | > 10
CN1C(=O)c2ccccc2Oc2cc(NC(=O)CNC(=O)c3ccco3)ccc21 [SN00797638] | > 10
CN1C(=O)c2ccccc2Oc2cc(NC(=O)C3(c4ccccc4)CC3)ccc21 [SN00797642] | > 10
CC(=O)Nc1cccc(C(=O)Nc2ccc3c(c2)Oc2ccccc2C(=O)N3C(C)C)c1C [SN00797651] | > 10
CC(C)N1C(=O)c2ccccc2Oc2cc(NC(=O)CNC(=O)c3ccco3)ccc21 [SN00797652] | > 10
CC(C)N1C(=O)c2ccccc2Oc2cc(NC(=O)c3cccs3)ccc21 [SN00797657] | > 10
